The values below come from US20050197286A1, “Method for control of depression using c terminal growth hormone (gh) fragment” (priority 2002, published 2005).

The test system of data set [1] is patients suffering from growth hormone deficiency. The settings on record: several studies, references 1-24; cited from earlier work.
Data set [2] concerns obese adult male subjects. Briefly: Double-blind, placebo-controlled single intravenous dose study of AOD9604 (Example 1). The class given is in vivo, human. The procedure:
The objective of this study was to characterise the safety, tolerability and pharmacodynamic effects of AOD9604 following single intravenous administration to obese adult male subjects. The study was performed by CMAX Pty Ltd under contract to Metabolic Pharmaceuticals Ltd.
The study was designed as a double-blind, placebo-controlled, 4×4 Williams Latin Square design, intravenous dose study included twenty four (obese Body mass index (BMI) of ≧35 kg/m^2 and a waist circumference of ≧110 cm) adult subjects with each subject receiving active study drug on each of three occasions and placebo on one occasion. Treatment allocation was randomised according to a Master Randomisation Schedule.
Subjects who provided written informed consent and who met all inclusion/exclusion criteria were randomised to receive each of the four treatments according to the study Master Randomisation Schedule. The subjects were randomised to receive a single dose of 25, 50 and 100 μg/kg AOD9604 and a single dose of placebo (5% mannitol solution) over the four periods of the study. Dose administration was by intravenous infusion, and was conducted over a period of 10 minutes.
During each in-clinic stay, blood samples were collected at specified times both prior to and following dose administration for the determination of pharmacodynamic parameters of non-esterified fatty acids (NEFA), glycerol, glucose and IGF-1. For the purposes of safety monitoring, the physical condition (physical examination, blood pressure, pulse, temperature and general well being) of the subjects was monitored both prior to and at specified intervals during each study period. ECG monitoring was performed prior to the infusion, at the end of the infusion and at specified times following the end of the infusion. Blood samples were also collected for assessment of haematological and biochemical parameters. Subjects were released from the clinic following the 24 hour post-dose blood sample and physical examination. Subjects returned to the clinic for the following period after a 7-day washout period. Within 14 days of the final period (Period 4), an Exit Evaluation was performed, involving the following assessments: physical examination (including ECG monitoring), body height and weight determination, vital sign measurements, questions regarding adverse events, collection of blood samples for the assessment of haematological and biochemical parameters, and collection of a urine sample for urinalysis and microscopy. A further 5 mL blood sample was collected and the serum stored for possible antibody analysis to be done at a later date.
Treatment A: A single dose of 25 μg/kg AOD9604 administered intravenously via an infusion pump over a 10 minute period.
Treatment B: A single dose of 50 μg/kg AOD9604 administered intravenously via an infusion pump over a 10 minute period.
Treatment C: A single dose of 100 μg/kg AOD9604 administered intravenously via an infusion pump over a 10 minute period.
Each subject received one of each of three doses of the active study drug, AOD9604 (25, 50, and 100 μg/kg) on three occasions and a placebo on one occasion. The doses were administered as intravenous infusions of 10 minute duration with a wash-out period of 7 days between each consecutive treatment. Subjects were not permitted to eat or drink anything, except for water, for at least 10 hours prior to and 2 hours following administration of the dose. Meals were timed in relation to the end of dosing, as follows: Snack (2 hours and 5 minutes), Lunch (4 hours and 5 minutes), Dinner (10 hours and 5 minutes) and Snack (13 hours and 5 minutes).

The test system of data set [3] is obese adult male subjects. The experiment in a line: Double-blind single oral dose study of AOD9604 (Example 2, Phase 2A). It is filed as in vivo, human. The text has this:
The objective of this study was to characterise the safety, tolerability, pharmacodynamic and pharmacokinetic effects of AOD9604 following single oral administration to obese adult male subjects.
The study was a double-blind, placebo controlled, 4×4 Williams Latin Square design, single oral dose study, planned to include 16 subjects. Each subject received active study drug on each of three occasions and placebo on one occasion. There was a washout period of 14 days between the doses administered in each study period.
Eligibility criteria were the same as for Example 1, except that the age range of the subjects was 35 to 60 years of age inclusive.
There were four study treatments, and each subject received each of the four treatments on four separate occasions, separated by a fourteen day wash out period. The dose strengths were as follows: • 10 mg (76.9 μg/kg for 130 kg subject); • 30 mg (230.8 μg/kg for 130 kg subject); • 60 mg (461.5 μg/kg for 130 kg subject); and • placebo.
The active pharmaceutical formulation was Size-0 capsules (Shionogi Qualicaps Co. Ltd.) of 10 mg AOD9604 containing 3.9% AOD9604, 84.1% Mannitol (USP) and 12% PEG3350, USP. Placebo capsules contained excipients only.
For each treatment, capsules were administered orally with 240 mL of room temperature water following at least a 12 hour overnight fast. Study personnel inspected the oral cavity to confirm that the subject has ingested the study treatment following each dose.
In the Phase 2A single dose intravenous trial, reported in Example 1, mild euphoria was reported by several patients who received drug and none who received placebo. The patients taking part in this single dose oral treatment were therefore asked to complete the Nottingham Health Profile questionnaire (see Wiklund I. (1990) The Nottingham Health Profile—a measure of health-related quality of life. Scand. J. Prim. Health Care Suppl. 1:15-8) before dose and 7 days after dose.

The test system of data set [4] is obese adult male subjects. Briefly: Double-blind multiple oral dose escalation study of AOD9604 (Example 3, Phase 2A). The class given is in vivo, human. An excerpt: The objective of this study was to characterise the safety and tolerability and the pharmacodynamic profile of AOD9604 following multiple oral administration to obese adult male subjects.
This was a double-blind, placebo-controlled, 3 period, oral dose, dose escalation study with randomization directed such that each subject received 7 doses of active study drug or placebo over one 7-day period, i.e. one dose per day for 7 days. There were up to three dose levels of AOD9604 and placebo studied in 3 cohorts of 12 subjects each. In each study period, 12 subjects were randomised so that 9 received active study drug and 3 received placebo. There was a period of 7 days between study periods to allow for appropriate safety review and permission to progress to the next dose level.
The eligibility criteria of subjects were as for Example 2, except that the age range was 18 to 60 years of age, and the BMI threshold was ≧30 kg/m^2, since the primary aim of the study was safety assessment. The restrictions on the subjects and the conduct of the study again were generally as in Example 2.
There were three study periods, and the dose strengths used were 10 mg, 30 mg, 60 mg and placebo, with seven doses per study period. The formulation of AOD9604 and placebo were as for Example 2.
For each treatment, capsules were administered orally every day for 7 days with 240 mL of room temperature water following at least a 12 hour overnight fast.
The patients were asked to complete the SF-36 Quality of Life Questionnaire (Ware J. J. and Sherbourne C. D. (1992) The MOS 36-item short-form health survey (SF-36). I. Conceptual framework and item selection. Medical Care; 30:473-83) at days 0, 8 and 14. The results are illustrated in FIG. 2, A and B and FIG. 3, A and B. The SF-36 questionnaire is different to the questionnaire used in the Phase 2A […] single dose trial of Example 2. SF-36 provides only positive numerical values for mood assessment, with higher values indicating greater happiness, and lower values indicating lower happiness. (The graphs in FIGS. 2 and 3 however do have some negative values because they are representing the change in mood from pre-treatment.) FIGS. 2 and 3 show a similar bell-shaped dose response on mood as that observed in Example 1 (only it is a reversed bell-shape in comparison to Example 1). […] There was an improvement in the mental aggregate scores, relative to placebo, at the 10 mg dose on day 8, and a worsening at the 30 mg and 60 mg doses relative to placebo.

The subject of another data set is healthy lean males. It is filed as in vivo, human. The procedure:
The selection of 25, 50 and 100 μg/kg doses of AOD9604 used in this study was based on the results from a previous Phase I study, conducted from February-June 2001, in healthy lean males using a dose range of 25-400 μg/kg AOD9604.

For a further data set, the system named is C57Bl/6J (Ob/Ob) mouse. To be noted: Australian patent No. 693478; cited from earlier work.
Where [5] appears, read: single iv infusion 25, 50 or 100 μg/kg, only in periods with active drug, none with placebo.

Entries after “also recorded” stand apart in the source; their conditions may differ.

Turning to “Intact growth hormone: intact growth hormone, the full hormone from which the C-terminal fragments derive”, the effect on mood result in data set [1] is reported as “positive effects on mood”.

With Tyr-hGH 177-191 [AOD9604], the “mean serum NEFA compared to placebo” value in data set [2] (2 hours post dose, all AOD9604 doses (25, 50, 100 μg/kg iv)) is listed as “rose more”. For the same substance, the severity of euphoria result in data set [2] (after a single iv dose of active drug) is on record as “mild to moderate euphoria; also recorded: mild or moderate euphoria”. In addition, the “weight loss in older patients compared to placebo” value in data set [2] (aged 35+ (N=13), highest dose 100 μg/kg iv) was “highly significant weight loss”. In data set [2] (measured 1 week after each iv dose), the “body weight change compared to placebo” value is on record as “lower in the treated groups than in those receiving placebo”. Further, the “significance of NEFA effect in older patients” value in data set [2] (patients aged 35+, 2 hours post dose) is “highly significant”. Moreover, in data set [2] (setting [5]), the “subjects experiencing euphoria (number of subjects)” value is listed as 5/23 and the “subjects experiencing euphoria (percentage)” value worked out at 21.7%. In addition, the “mood, Nottingham Health Profile questionnaire, response by dose” value in data set [3] (30 mg single oral dose, lower is happier) was “greatest response”. In addition, the “non-esterified fatty acid (NEFA) levels compared to placebo” value in data set [3] (1, 2 and 4 hours after AOD9604 27.6 mg oral, p<0.05) is “statistically significantly increased”. The NEFA response result in data set [3] (AOD9604 55.2 mg oral, compared with 27.6 mg) is given as “lower response”. For the same substance, in data set [3] (before dose vs 7 days after dose, all single oral doses (10, 30, 60 mg), placebo worsened), the “mood, Nottingham Health Profile questionnaire” value is “improvement of mood”. Moreover, the tolerability result in data set [3] (over the oral dose range 10-60 mg single dose) is reported as “well tolerated”. In addition, in data set [3] (single oral doses), the “incidence of adverse events, active vs placebo” value is “no observable trends”; the “vital signs, ECG, physical examination and clinical laboratory assessments” value was “no clinically significant changes”. The gastrointestinal adverse effects result in data set [4] (60 mg dose group, particularly in the hour after dose) is listed as “increase in mild gastrointestinal effects”. The “significance of body weight effect in subgroup” value in data set [4] (age 35+ and BMI 35+ group, p<0.05) was “statistically significant”. Besides, the “SF-36 mental aggregate relative to placebo, all doses” value in data set [4] (at 8 days vs day 0, 10, 30, 60 mg/day oral for 7 days) is listed as “improvement in the mental aggregate for all doses relative to placebo”. In data set [4] (at 8 days, 10 mg/day oral, p<0.05), the “significance of SF-36 improvement at 10 mg” value is “statistically significant”. Further, the “SF-36 physical aggregate relative to placebo” value in data set [4] (at 14 days, dose 60 mg/day, only aggregate/dose worse than placebo) was “worse result that the placebo”. In data set [4] (day 8, 10 mg/day oral), the “SF-36 mental aggregate scores relative to placebo, 10 mg” value is reported as “improvement”. For the same substance, in data set [4] (day 8, 30 mg and 60 mg/day oral), the “SF-36 mental aggregate scores relative to placebo, 30 mg and 60 mg” value is “worsening”. Moreover, the “body weight difference (anti-obesity effect)” value in data set [4] (morning of day 1 vs day 8, bell-shaped dose response) is given as “clear activity”. Besides, in data set [4] (multiple oral doses, 7 days), the “incidence of adverse events, active vs placebo” value is “no observable trends”; the “vital signs, ECG, physical examination and clinical laboratory assessments” value is reported as “no clinically significant changes”. Also, the “pharmacodynamic response at 50 μg/kg” value with healthy lean males (50 μg/kg) was “a response had been shown”. In addition, the “pharmacodynamic response at high dose” value with healthy lean males (dose increased to 200 μg/kg and higher) is given as “response diminished”. In addition, the pharmacodynamic response result in the data set with healthy lean males (iv dose range 25-400 μg/kg) is on record as “A pharmacodynamic response was seen”.

Consider “hGH 177-191: synthetic peptide corresponding to amino acid residues 177-191 of the human growth hormone sequence (LRIVQCRSVEGSCGF; UniProt P01241 203-217, looked up, fragment)”, for which, in the data set with C57Bl/6J (Ob/Ob) mouse, the “body weight gain and adipose tissue mass” value was “reduce body weight gain and adipose tissue mass”.
